Results: patent publication US9464056B2, “Fungicidal 4-methylanilino pyrazoles” (E. I. DU PONT DE NEMOURS AND COMPANY, priority 2012, dated 2016)

Assays:
[1] = tested on: Puccinia recondita f. sp. tritici; experiment: Test E1: curative spray on wheat seedlings after inoculation, Puccinia recondita f. sp. tritici (wheat leaf rust), visual disease rating; format: in vivo; settings: sprayed after inoculation (curative), 100 = 100% disease control, 0 = no disease control relative to controls
Text: General protocol for preparing test suspensions for Tests A-H: the test compounds were first dissolved in acetone in an amount equal to 3% of the final volume and then suspended at the desired concentration (in ppm) in acetone and purified water (50/50 mix by volume) containing 250 ppm of the surfactant Trem® 014 (polyhydric alcohol esters). The resulting test suspensions were then used in Tests A-F. Spraying a 40 ppm test suspension to the point of run-off on the test plants was the equivalent of a rate of 160 g/ha. Unless otherwise indicated, the rating values indicate a 40 ppm test suspension was used. Wheat seedlings were inoculated with a spore suspension of Puccinia recondita f. sp. tritici (the causal agent of wheat leaf rust) and incubated in a saturated atmosphere at 20° C. for 24 h, and then moved to a growth chamber at 20° C. for 2 days. After 2 days, the test suspension was sprayed to the point of run-off on the wheat seedlings, and then the seedlings were moved back to the growth chamber at 20° C. for 4 days. Upon removal, visual disease ratings were made. Results for Tests A-F are given in Table A. In the Table, a rating of 100 indicates 100% disease control and a rating of 0 indicates no disease control (relative to the controls). A dash (-) indicates no test results.

Alternaria solani = experiment: Test B: preventive spray on tomato seedlings, Alternaria solani (tomato early blight), visual disease rating; format: in vivo; settings: 100 = 100% disease control, 0 = no disease control relative to controls
Text: General protocol for preparing test suspensions for Tests A-H: the test compounds were first dissolved in acetone in an amount equal to 3% of the final volume and then suspended at the desired concentration (in ppm) in acetone and purified water (50/50 mix by volume) containing 250 ppm of the surfactant Trem® 014 (polyhydric alcohol esters). The resulting test suspensions were then used in Tests A-F. Spraying a 40 ppm test suspension to the point of run-off on the test plants was the equivalent of a rate of 160 g/ha. Unless otherwise indicated, the rating values indicate a 40 ppm test suspension was used. The test suspension was sprayed to the point of run-off on tomato seedlings. The following day the seedlings were inoculated with a spore suspension of Alternaria solani (the causal agent of tomato early blight) and incubated in a saturated atmosphere at 27° C. for 48 h, and then moved to a growth chamber at 24° C. for 5 days, after which time visual disease ratings were made. Results for Tests A-F are given in Table A. In the Table, a rating of 100 indicates 100% disease control and a rating of 0 indicates no disease control (relative to the controls). A dash (-) indicates no test results.

[2] = tested on: Blumeria graminis f. sp. tritici; experiment: Test F: preventive spray on wheat seedlings, Blumeria graminis f. sp. tritici (wheat powdery mildew), visual disease rating; format: in vivo; settings: topical, 192 h, 100 = 100% disease control, 0 = no disease control relative to controls
Text: General protocol for preparing test suspensions for Tests A-H: the test compounds were first dissolved in acetone in an amount equal to 3% of the final volume and then suspended at the desired concentration (in ppm) in acetone and purified water (50/50 mix by volume) containing 250 ppm of the surfactant Trem® 014 (polyhydric alcohol esters). The resulting test suspensions were then used in Tests A-F. Spraying a 40 ppm test suspension to the point of run-off on the test plants was the equivalent of a rate of 160 g/ha. Unless otherwise indicated, the rating values indicate a 40 ppm test suspension was used. The test suspension was sprayed to the point of run-off on wheat seedlings. The following day the seedlings were inoculated with a spore dust of Blumeria graminis f. sp. tritici (also known as Erysiphe graminis f. sp. tritici, the causal agent of wheat powdery mildew) and incubated in a growth chamber at 20° C. for 8 days, after which time visual disease ratings were made. Results for Tests A-F are given in Table A. In the Table, a rating of 100 indicates 100% disease control and a rating of 0 indicates no disease control (relative to the controls). A dash (-) indicates no test results.

Botrytis cinerea = experiment: Test A: preventive spray on tomato seedlings, Botrytis cinerea (tomato Botrytis), visual disease rating; format: in vivo; settings: 100 = 100% disease control, 0 = no disease control relative to controls
Text: (§1) General protocol for preparing test suspensions for Tests A-H: the test compounds were first dissolved in acetone in an amount equal to 3% of the final volume and then suspended at the desired concentration (in ppm) in acetone and purified water (50/50 mix by volume) containing 250 ppm of the surfactant Trem® 014 (polyhydric alcohol esters). The resulting test suspensions were then used in Tests A-F. Spraying a 40 ppm test suspension to the point of run-off on the test plants was the equivalent of a rate of 160 g/ha. Unless otherwise indicated, the rating values indicate a 40 ppm test suspension was used. The test suspension was sprayed to the point of run-off on tomato seedlings. The following day the seedlings were inoculated with a spore suspension of Botrytis cinerea (the causal agent of tomato Botrytis) and incubated in saturated atmosphere at 20° C. for 48 h, and then moved to a growth chamber at 27° C. for 3 days, after which time visual disease ratings were made. Results for Tests A-F are given in Table A. In the Table, a rating of 100 indicates 100% disease control and a rating of 0 indicates no disease control (relative to the controls). A dash (-) indicates no test results.

Septoria tritici = experiment: Test D: preventive spray on wheat seedlings, Septoria tritici (wheat leaf blotch), visual disease rating; format: in vivo; settings: Zymoseptoria tritici, topical, 504 h, 100 = 100% disease control, 0 = no disease control relative to controls
Text: as §1, with “on wheat” for “on tomato”, “of Septoria tritici” for “of Botrytis cinerea”, “of wheat leaf blotch)” for “of tomato Botrytis)”, “at 24°” for “at 20°”, “at 20°” for “at 27°”, “for 19” for “for 3”

For `Cc1cc(F)c(Nc2c(-c3ccc(F)cc3Cl)c(C)nn2C)c(Br)c1` [Compound 1, N-(2-bromo-6-fluoro-4-methylphenyl)-4-(2-chloro-4-fluorophenyl)-1,3-dimethyl-1H-pyrazol-5-amine], the “Test E1 rating (% disease control)” value [1] was 100, the “Test B rating (% disease control)” value (Alternaria solani) was 99 and the pest or weed control at 40 µg/mL [2] was 100%. The melting point was 132 to 133 °C, the pest or weed control at 40 µg/mL (Botrytis cinerea) was 100% and the pest or weed control at 40 µg/mL (Septoria tritici) was 100%.
